From patent US20220074923A1, “METHODS OF IDENTIFYING PARKIN-MEDIATED MITOPHAGY ACTIVATING AGENTS” (THE GOVERNING COUNCIL OF THE UNIVERSITY OF TORONTO, priority 2018, published 2022)

Experiments:
Canton(S) flies = format: in vivo, Drosophila
Protocol: Fresh vials containing standard fly food supplemented with the indicated treatments were changed out every 2 days. The number of flies surviving each day was counted and log-rank tests were performed to determine statistical significance. […] The number of flies to climb beyond 9.5 cm every 10 seconds was assessed. The percentage of flies in each treatment to cross this line was determined. The climbing ability of each treatment was normalized to the control group treated with water only. […] Log-rank tests were performed to determine p-values for survival analyses (a, b, g), *P<0.05. P-values were determined by one-tailed paired student's t-test for all climbing assays (c-e, h), *P<0.05. Data is expressed as mean±s.e.m. All error bars represent s.e.m
Drosophila aged 7 days are fed food supplemented with either water (control), 1 mM SR3677, 10 mM paraquat or SR3677 in combination with paraquat. The survival of flies was recorded each day following administration of the treatments and climbing abilities were tested every 2 days by performing negative geotaxis assays.
Male Canton(S) Drosophila were aged 7 days prior to feeding with standard fly food supplemented with water, 10 mM paraquat, 1 mM SR3677, or with combinations of these chemicals. Flies were placed into new vials containing fresh food supplemented with the treatments previously administered and 2 days later, climbing assays were performed. Flies were placed into plastic cylinder vials and tapped down, so all flies fell to the bottom. The number of flies to climb beyond 12.5 cm was counted every 10 s and values are represented as the percentage of total flies in each treatment group.

[1] = in vivo; cited from earlier work

CN(C)CCOc1cc(-c2cn[nH]c2)ccc1NC(=O)[C@@H]1COc2ccccc2O1 [SR3677]
survival of flies, compound alone (Canton(S) flies; 1 mM SR3677 in food): does not affect survival of flies
survival of flies challenged with paraquat (Canton(S) flies; 1 mM SR3677 with 10 mM paraquat in food): significantly improved viability of flies
bioavailability [1]: poor bioavailability
